In ChEMBL document CHEMBL3596108 (Bioorg Med Chem, 2015):

Columns and labels:
[1] = Half life in nude mouse at 30 mg/kg, ip administered as single dose; type: ADME, organism-based; details: in vivo
[2] = Passive permeability of the compound by PAMPA method; type: physicochemical; details: read-out: permeability
[3] = Cmax in nude mouse at 30 mg/kg, ip administered as single dose; type: ADME, organism-based; parameters: dose 30 mg/kg, route intraperitoneal; details: in vivo
[4] = AUC (0 to t) in nude mouse at 30 mg/kg, ip administered as single dose; type: ADME, organism-based; details: in vivo
[5] = Tmax in nude mouse at 30 mg/kg, ip administered as single dose; type: ADME, organism-based; details: in vivo

## Cl.NC1CCc2c(Br)ccc(-c3ccccc3)c2CC1=O (stereo not given)
[1]
  half-life: 35 min
[2]
  Papp: 3.03 ×10⁻⁶ cm/s
[3]
  Cmax: 115 ng/mL
[4]
  AUC(0-t): 190 ng·h/mL
[5]
  Tmax: 30 min
